This assay concerns the target T1, JNK1α1 (Homo sapiens, UniProt P45983).
T1 construct: catalytic domain containing amino acids 1-364 and N-terminal hexahistidine tag; hexahistidine (His6) (N); made in house; host or cells: E. coli BL21 (DE3)
In words: Coupled spectrophotometric (PK/LDH) JNK1α1 assay: % inhibition and Ki determination. It is filed as biochemical. To be noted: JNK-1. As to the method:
% Inhibition and Ki Determination
A coupled spectrophotometric assay, coupling JNK1α1 activity to the oxidation of β-NADH to NAD+ through the action of pyruvate kinase (PK) and lactic dehydrogenase (LDH), was used to determine the potency (percent inhibition at 1 or 10 μM or Ki) of compounds against JNK1α1 (Genbank Accession Number: L26318). […] The reaction was monitored by following the decrease in absorbance at 340 nm. The initial reaction rate was determined by the slope of the change in absorbance. To calculate percent inhibition the rate of the reaction in the presence of 1 or 10 μM compound was compared to the rate of the reaction with only DMSO multiplied by 100 percent. Note, the background rate of the above reaction in the presence of 10 μM PHA-00738186 was subtracted from all rates. […] Y=(−X+Eo−(Ki*(1+A/Km))+((X−Eo+(Ki*(1+A/Km)))^2+4*Eo*(Ki*(1+A/Km)))^0.5)*(Vm*A/(Km+A)/(2*Eo)) Formula: • Parameters: Eo, Ki, A, Km, Vo • Y is initial reaction velocity; • X is inhibitor concentration; • A is [ATP]; • Ki is inhibition constant; • Vm is Vmax; • Eo is total (initial) enzyme concentration; • Km is ATP Km;
The compounds were prepared in 100% DMSO at a 40× concentration. For percent inhibition experiments this would be 400 or 40 μM for 10 and 1 μM final concentration, respectively. For the Ki determination 3× serial dilutions were made starting at 4 mM (100 μM at 1×) in DMSO. A total of 11 concentrations were used for the analysis. The compounds were added to the reaction plate first. Next, a solution containing the HEPES, MgCl2, DTT, peptide substrate, NADH, PEP, PK/LDH enzyme, and JNK1α1—364nHis enzyme was added to the assay plate. The plate was incubated at room temperature for 15 minutes. Then the plate was warmed to 30° C. for 5 minutes. The reaction was initiated with the addition of ATP. The reaction was run in a plate reader at 30° C. for 20 minutes with absorbance readings made about every 10 seconds.
The column with “#” heading refers to compound number as exemplified in the Examples section. The column with “Ki” heading refers to Ki (in nM). The column with “% Inhibition” heading refers to percent inhibition of JNK-1 at 1 μM or 10 μM (in %) unless otherwise stated. ND refers to no data was taken.

The term Ki denotes a dissociation constant, usually derived from enzyme kinetics or from competition with a known ligand. The low end stands for higher affinity, the high end for lower affinity.

T1 sequence (P45983 1-364): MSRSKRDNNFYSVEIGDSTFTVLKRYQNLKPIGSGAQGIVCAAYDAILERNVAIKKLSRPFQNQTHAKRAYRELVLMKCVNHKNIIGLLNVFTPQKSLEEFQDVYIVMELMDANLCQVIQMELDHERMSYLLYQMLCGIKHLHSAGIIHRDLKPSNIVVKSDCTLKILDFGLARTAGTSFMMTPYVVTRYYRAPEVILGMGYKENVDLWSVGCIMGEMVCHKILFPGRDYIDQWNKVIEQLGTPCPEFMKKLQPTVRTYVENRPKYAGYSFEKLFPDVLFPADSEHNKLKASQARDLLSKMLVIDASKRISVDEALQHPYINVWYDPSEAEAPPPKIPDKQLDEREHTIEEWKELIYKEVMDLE

In turn, `O=C(NC1CCS(=O)(=O)C1)c1ccc2cnc(N[C@H]3CC[C@H](O)CC3)nc2c1` (stereo partly drawn) [Example 60, N-(1,1-dioxidotetrahydro-3-thienyl)-2-[(trans-4-hydroxycyclohexyl)amino]quinazoline-7-carboxamide] registered an inhibition constant (Ki) of 0.157 µM. For `O=C(NCCN1CCOCC1)c1ccc2cnc(N[C@H]3CC[C@H](O)CC3)nc2c1` [Example 61, 2-[(trans-4-hydroxycyclohexyl)amino]-N-(2-morpholin-4-ylethyl)quinazoline-7-carboxamide] the value was 0.525 µM; for `O=C(NCc1ccccc1)c1ccc2cnc(N[C@H]3CC[C@H](O)CC3)nc2c1` [Example 62, N-benzyl-2-[(trans-4-hydroxycyclohexyl)amino]quinazoline-7-carboxamide], 0.432 µM. Compound `O=C(NCCc1ccccc1)c1ccc2cnc(N[C@H]3CC[C@H](O)CC3)nc2c1` [Example 63, 2-[(trans-4-hydroxycyclohexyl)amino]-N-(2-phenylethyl)quinazoline-7-carboxamide] yielded an inhibition constant Ki of 0.46 µM. The same measure for `CC(C)NC(=O)c1ccc2cnc(N[C@H]3CC[C@H](O)CC3)nc2c1` [Example 64, 2-[(trans-4-hydroxycyclohexyl)amino]-N-isopropylquinazoline-7-carboxamide]: 0.456 µM; for `O=C(NC1CCS(=O)(=O)C1)c1ccc2cnc(N[C@H]3CC[C@H](O)CC3)nc2c1` (stereo partly drawn) [Example 79, N-(1,1-dioxidotetrahydro-3-thienyl)-2-[(trans-4-hydroxycyclohexyl)amino]quinazoline-7-carboxamide]: 0.292 µM; for `O=C(NCc1ccccc1)c1ccc2cnc(N[C@H]3CC[C@H](O)CC3)nc2c1` [Example 81, N-benzyl-2-[(trans-4-hydroxycyclohexyl)amino]quinazoline-7-carboxamide]: 0.063 µM. Compound `O=C(NCCc1ccccc1)c1ccc2cnc(N[C@H]3CC[C@H](O)CC3)nc2c1` [Example 82, 2-[(trans-4-hydroxycyclohexyl)amino]-N-(2-phenylethyl)quinazoline-7-carboxamide] had an inhibition constant Ki of 0.235 µM.

The compound `CC(C)NC(=O)c1ccc2cnc(N[C@H]3CC[C@H](O)CC3)nc2c1` [Example 83, 2-[(trans-4-hydroxycyclohexyl)amino]-N-isopropylquinazoline-7-carboxamide] showed a Ki of 0.247 µM. Turning to `O=C(c1ccc2cnc(N[C@H]3CC[C@H](O)CC3)nc2c1)N1CCC[C@H]1CO` [Example 85, trans-4-[(7-{[(2S)-2-(hydroxymethyl)pyrrolidin-1-yl]carbonyl}quinazolin-2-yl)amino]cyclohexanol], the affinity, expressed as Ki, was 3.01 µM. As to `O=C(NCc1ccccn1)c1ccc2cnc(N[C@H]3CC[C@H](O)CC3)nc2c1` [Example 86, 2-[(trans-4-hydroxycyclohexyl)amino]-N-(pyridin-2-ylmethyl)quinazoline-7-carboxamide], the affinity, expressed as Ki, was 0.22 µM. The same measure for `C[C@@H](NC(=O)c1ccc2cnc(N[C@H]3CC[C@H](O)CC3)nc2c1)c1ccccc1` [Example 87, 2-[(trans-4-hydroxycyclohexyl)amino]-N-[(1R)-1-phenylethyl]quinazoline-7-carboxamide]: 0.06 µM; for `O=C(NCc1ccc(F)cc1)c1ccc2cnc(N[C@H]3CC[C@H](O)CC3)nc2c1` [Example 88, N-(4-fluorobenzyl)-2-[(trans-4-hydroxycyclohexyl)amino]quinazoline-7-carboxamide]: 0.114 µM; for `CC(C)(CN1CCOCC1)NC(=O)c1ccc2cnc(N[C@H]3CC[C@H](O)CC3)nc2c1` [Example 89, N-(1,1-dimethyl-2-morpholin-4-ylethyl)-2-[(trans-4-hydroxycyclohexyl)amino]quinazoline-7-carboxamide]: 0.269 µM. The same measure for `CC(=O)N1CCC(CNC(=O)c2ccc3cnc(N[C@H]4CC[C@H](O)CC4)nc3c2)CC1` [Example 91, N-[(1-acetylpiperidin-4-yl)methyl]-2-[(trans-4-hydroxycyclohexyl)amino]quinazoline-7-carboxamide]: 0.643 µM; for `O=C(NCC1CCCOC1)c1ccc2cnc(N[C@H]3CC[C@H](O)CC3)nc2c1` (stereo partly drawn) [Example 92, 2-[(trans-4-hydroxycyclohexyl)amino]-N-(tetrahydro-2H-pyran-3-ylmethyl)quinazoline-7-carboxamide]: 0.379 µM.

In the case of `CC[C@@H](NC(=O)c1ccc2cnc(N[C@H]3CC[C@H](O)CC3)nc2c1)c1ccccc1` [Example 93, 2-[(trans-4-hydroxycyclohexyl)amino]-N-[(1R)-1-phenylpropyl]quinazoline-7-carboxamide], the Ki was 0.031 µM.

The compound `O=C(NC1CCc2ccccc21)c1ccc2cnc(N[C@H]3CC[C@H](O)CC3)nc2c1` (stereo partly drawn) [Example 94, N-(2,3-dihydro-1H-inden-1-yl)-2-[(trans-4-hydroxycyclohexyl)amino]quinazoline-7-carboxamide] displayed an inhibition constant (Ki) of 0.148 µM. In turn, `O=C(N[C@H](CO)c1ccccc1)c1ccc2cnc(N[C@H]3CC[C@H](O)CC3)nc2c1` [Example 95, 2-[(trans-4-hydroxycyclohexyl)amino]-N-[(1S)-2-hydroxy-1-phenylethyl]quinazoline-7-carboxamide] returned an inhibition constant Ki of 0.074 µM.

In the case of `COc1ccccc1C(CO)NC(=O)c1ccc2cnc(N[C@H]3CC[C@H](O)CC3)nc2c1` (stereo partly drawn) [Example 97, 2-[(trans-4-hydroxycyclohexyl)amino]-N-[2-hydroxy-1-(2-methoxyphenyl)ethyl]quinazoline-7-carboxamide], affinity was put at a Ki of 0.055 µM. For the compound `O=C(NC(CO)c1ccccc1F)c1ccc2cnc(N[C@H]3CC[C@H](O)CC3)nc2c1` (stereo partly drawn) [Example 98, N-[1-(2-fluorophenyl)-2-hydroxyethyl]-2-[(trans-4-hydroxycyclohexyl)amino]quinazoline-7-carboxamide], the Ki turned out to be 0.033 µM. For `O=C(NC(CO)c1ccccc1Cl)c1ccc2cnc(N[C@H]3CC[C@H](O)CC3)nc2c1` (stereo partly drawn) [Example 99, N-[1-(2-chlorophenyl)-2-hydroxyethyl]-2-[(trans-4-hydroxycyclohexyl)amino]quinazoline-7-carboxamide] the value was 0.018 µM. The compound `O=C(NC(CO)c1ccccn1)c1ccc2cnc(N[C@H]3CC[C@H](O)CC3)nc2c1` (stereo partly drawn) [Example 100, 2-[(trans-4-hydroxycyclohexyl)amino]-N-(2-hydroxy-1-pyridin-2-ylethyl)quinazoline-7-carboxamide] came in with a Ki of 0.12 µM.

Consider `NC[C@@H](NC(=O)c1ccc2cnc(N[C@H]3CC[C@H](O)CC3)nc2c1)c1ccccc1` [Example 101, N-[(1S)-2-amino-1-phenylethyl]-2-[(trans-4-hydroxycyclohexyl)amino]quinazoline-7-carboxamide], for which the inhibition constant Ki amounted to 0.094 µM. With `O=C(c1cccc2cnc(N[C@H]3CC[C@H](O)CC3)nc12)N1CCOCC1` [Example 102, trans-4-{[8-(morpholin-4-ylcarbonyl)quinazolin-2-yl]amino}cyclohexanol], the inhibition constant Ki worked out at 0.992 µM. Consider `CC(C)NC(=O)c1cccc2cnc(N[C@H]3CC[C@H](O)CC3)nc12` [Example 103, 2-[(trans-4-hydroxycyclohexyl)amino]-N-isopropylquinazoline-8-carboxamide], for which affinity was put at a Ki of 0.176 µM. `CC(C)(CO)NC(=O)c1cccc2cnc(N[C@H]3CC[C@H](O)CC3)nc12` [Example 104, 2-[(trans-4-hydroxycyclohexyl)amino]-N-(2-hydroxy-1,1-dimethylethyl)quinazoline-8-carboxamide] had a Ki of 0.066 µM. In turn, `CC(C)(CN1CCOCC1)NC(=O)c1cccc2cnc(N[C@H]3CC[C@H](O)CC3)nc12` [Example 105, N-(1,1-dimethyl-2-morpholin-4-ylethyl)-2-[(trans-4-hydroxycyclohexyl)amino]quinazoline-8-carboxamide] had an inhibition constant Ki of 0.703 µM. For `CS(=O)(=O)CCNC(=O)c1cccc2cnc(N[C@H]3CC[C@H](O)CC3)nc12` [Example 106, 2-[(trans-4-hydroxycyclohexyl)amino]-N-[2-(methylsulfonyl)ethyl]quinazoline-8-carboxamide] the value was 0.223 µM; for `O=C(NCC1CCOC1)c1cccc2cnc(N[C@H]3CC[C@H](O)CC3)nc12` (stereo partly drawn) [Example 107, 2-[(trans-4-hydroxycyclohexyl)amino]-N-(tetrahydrofuran-3-ylmethyl)quinazoline-8-carboxamide], 0.25 µM; for `O=C(NCCO)c1cccc2cnc(N[C@H]3CC[C@H](O)CC3)nc12` [Example 108, 2-[(trans-4-hydroxycyclohexyl)amino]-N-(2-hydroxyethyl)quinazoline-8-carboxamide], 0.126 µM.

(Values after patent US7998978B2 (Pfizer Inc., priority 2006, dated 2011).)
